This is an account of results in PMC9820444, “Design and Synthesis of Acridine-Triazole and Acridine-Thiadiazole Derivatives and Their Inhibitory Effect against Cancer Cells” (International Journal of Molecular Sciences, 2022).

The test system of data set [1] is large cell lung cancer cells (NCI-H460). The data set can be described thus: MTT antiproliferative assay, NCI-H460. The format is cell-based, human. The conditions noted are these: read-out: Effect against cell viability (IC50), NCI-H460. The procedure:
(§1) All newly synthesized acridinyl derivatives (4–6) were screened for their anticancer activities in comparison to the reference compounds, 5-FU and cis-platinum. Compounds 4–6 were tested for their in vitro antitumor activities against HFF, MGC-803, BEL-7404, NCI-H460, and T24 tumor cell lines, and human normal liver cells (LO2), and the results are shown in Table 1. Most of the compounds had strong selective potency against MGC-803 and T24 cancer cells. […] In the T24 cell line assay, many compounds, especially the series of compound 4, had significant activity against T24. This implies that there is a significant increase in potency after the introduction of the aroyl thiourea group. […] To our delight, most 1,2,4-triazolethiones (5) and 1,2,4-thiadiazoles (6) have low toxicity to LO2 compared with the positive control.
(§2) Test samples, including compounds 4–6 and commercial classical anticancer drugs (5-FU and cis-platinum), were screened for their anti-cancer activity against HFF human foreskin fibroblast cells, MGC-803 human gastric cancer cells, BEL-7404 human hepatocellular carcinoma cells, NCI-H460 human large cell carcinoma cells, and T24 human bladder carcinoma cells using the 3-(4,5-dimethylthiazol-2-yl)-2,5-diphenyltetrazoliumbromide (MTT) assay method cited in the literature. The initial concentration of all the test samples was 100 μg/mL, which was serially diluted in complete medium with ten-fold dilutions to give six concentrations per compound. Their cytotoxicity was determined in 96-well flat bottomed microtiter plates. All the test samples were tested in triplicate. The results were expressed as the drug concentration that inhibited cell growth by 50% as compared to the controls (IC50). The IC50 values were calculated from regression lines obtained from the percent cell growth inhibition plotted as a function of the logarithm of the dose.

Data set [2] has as its system human normal liver cells (LO2). The data set can be described thus: Cytotoxicity against normal liver cells LO2. The format is cell-based. The following applies: MTT, read-out: Effect against cell viability (IC50), LO2. The procedure: as §1, §2
Data set [3] has as its system human foreskin fibroblasts (HFF). Kind of data set: MTT antiproliferative assay, HFF. The format is cell-based. The conditions noted are these: read-out: Effect against cell viability (IC50), HFF. The procedure: as §1, §2
For orientation: Tetrazolium dyes change colour on reduction, which living cells bring about.

In data set [4] the test system is bladder cancer cells (T24). The data set can be described thus: MTT antiproliferative assay, T24. The conditions noted are these: read-out: Effect against cell viability (IC50), T24. The format is cell-based, human. The procedure: as §1, §2
Data set [5] deals with hepatocellular carcinoma bel-7404 (BEL-7404). The data set can be described thus: MTT antiproliferative assay, BEL-7404. The conditions noted are these: read-out: Effect against cell viability (IC50), BEL-7404. The format is cell-based, human. The procedure: as §1, §2
The test system of data set [6] is zebrafish embryos. Also noted: mortality rate of zebrafish embryos: dose or concentration left out as unconfirmed. The following applies: for MAR (malformation rate) / MOR (mortality rate): zebrafish embryos 72 hpf; for total mortality and malformation rate: zebrafish embryos. The procedure:
In this experiment, 2% DMSO was used to dissolve the target products, and the abnormal rate (MAR) and mortality rate (MOR) of zebrafish embryos (72 hpf) were used for statistics.
The zebrafish embryos were collected at 6 hpf and randomly divided into naive control (embryos maintained in distilled water), vehicle control (embryos treated with 2% DMSO), and drug groups. Stock solutions of all drugs were prepared in 2% DMSO as a solubilizing agent and diluted to three concentrations (0.5 mg/mL, 1 mg/mL, and 2 mg/mL). Each group had 20 embryos per test concentration. […] Each compound was evaluated in three independent biological experiments.

Data set [7] relates to human gastric cancer cells-803 (MGC-803). The data set can be described thus: MTT antiproliferative assay, MGC-803. The format is cell-based. The conditions noted are these: read-out: Effect against cell viability (IC50), MGC-803. The procedure:
as §1, §2

The structures appear in SMILES notation. Read-outs that look alike come from different tables or passages of the source. Marks after values point to notes of the source that are not given here.

A word on the melting point: it is the temperature of the solid-liquid transition. Take `Cc1ccc2nc3ccccc3c(-n3c(-c4ccccc4)n[nH]c3=S)c2c1` [5g, 4-(2-methylacridin-9-yl)-5-phenyl-2,4-dihydro-3H-1,2,4-triazole-3-thione]: the melting point was 292 to 293 °C. The IC50 in data set [1] (Homo sapiens) was 30.6 ± 2.21 µM. Further, the IC50 in data set [2] (Homo sapiens) came out at 44.6 ± 2.35 µM. Also, the IC50 in data set [3] (Homo sapiens, Fibroblast) came out at 68.3 ± 2.74 µM. In data set [4] (Homo sapiens), the IC50 amounted to 19.4 ± 2.17 µM. For the same molecule, in data set [5] (Homo sapiens), the IC50 turned out to be 20.5 ± 1.13 µM.
Turning to `COc1ccc2nc3ccccc3c(NC(=S)NNC(=O)c3ccccc3)c2c1` [4b, 1-2′-methoxyl acridinyl-3-benzoyl thiosemicarbazides], the “MAR (malformation rate)” value in data set [6] (1 mg/mL) was determined as 70% ^a; in data set [6] (1.5 mg/mL), 70% ^a; in data set [6] (2 mg/mL), 55% ^a. Further, the results for the “MOR (mortality rate)” value in data set [6] (1 mg/mL), in data set [6] (1.5 mg/mL) and in data set [6] (2 mg/mL) were 15% ^a, 15% ^a and 40% ^a, respectively. For the same molecule, the “total mortality and malformation rate” value in data set [6] (2.0 mg.L^−1) is reported as 100%. Besides, the IC50 in data set [1] turned out to be 42.3 ± 2.15 µM; in data set [2], 34.4 ± 2.05 µM; in data set [3], 72.6 ± 3.57 µM; in data set [4] it was 29.8 ± 2.85 µM; in data set [5], 25.8 ± 2.83 µM; in data set [7] (MTT), 14.5 ± 2.06 µM.
As to `Cc1ccc2[nH]c3ccccc3c(=NC(=S)NNC(=O)c3ccncc3)c2c1` [4f, 1-2′-methyl acridinyl-3-4′-pyridinamide thiourea], the entries for the “MAR (malformation rate)” value in data set [6] (1 mg/mL), in data set [6] (1.5 mg/mL) and in data set [6] (2 mg/mL) were 60% ^b, 80% ^b and 15% ^b, respectively. Further, the results for the “MOR (mortality rate)” value in data set [6] (1 mg/mL), in data set [6] (1.5 mg/mL) and in data set [6] (2 mg/mL) were 10% ^b, 20% ^b and 85% ^b, respectively. For the same molecule, the “total mortality and malformation rate” value in data set [6] (2.0 mg.L^−1) is given as 100%. Moreover, the IC50 stood at 53.7 ± 3.04 µM in data set [1]; 10.1 ± 0.96 µM in data set [2]; 55.2 ± 1.36 µM in data set [3]; 9.66 ± 1.54 µM in data set [4]; 34.4 ± 2.24 µM in data set [5]; 11.2 ± 0.96 µM in data set [7] (MTT).
For `N.N.[Cl][Pt][Cl]` [cis-platinum, reference compound], the IC50 in data set [1] was 7.13 ± 1.24 µM; in data set [2], 21.4 ± 1.25 µM; in data set [3], 10.8 ± 0.34 µM; in data set [4], 9.13 ± 1.54 µM; in data set [5] it was 10 ± 0.52 µM; in data set [7] (MTT), 16 ± 1.53 µM.
For the molecule `COC1=CC2C(=Nc3nnc(-c4ccncc4)s3)c3ccccc3NC2C=C1` (centres unmarked) [6a, 7-methoxy-N-(5-(pyridin-4-yl)-1,3,4-thiadiazol-2-yl)-10,10a-dihydroacridin-9(8aH)-imine], the figures for the “MAR (malformation rate)” value in data set [6] (1 mg/mL), in data set [6] (1.5 mg/mL) and in data set [6] (2 mg/mL) were 15% ^b, 95% ^b and 90% ^b, respectively. In addition, the “MOR (mortality rate)” value in data set [6] (1 mg/mL) was 0%; in data set [6] (1.5 mg/mL), 0%; in data set [6] (2 mg/mL), 5% ^b. In addition, the IC50 in data set [1] (Homo sapiens) is 25.3 ± 3.57 µM; in data set [2] (Homo sapiens), 40.2 ± 2.74 µM; in data set [3] (Homo sapiens, Fibroblast), 68.8 ± 1.87 µM; in data set [4] (Homo sapiens), 10.2 ± 0.96 µM; in data set [5] (Homo sapiens), 19.2 ± 1.3 µM; in data set [7] (Homo sapiens, MGC-803, MTT) it was 14.3 ± 1.29 µM.
`COc1ccc2nc3ccccc3c(NC(=S)NNC(=O)c3ccc([N+](=O)[O-])cc3)c2c1` [4d, 1-2’-methoxyl acridinyl-3-4′-nitro benzoyl thiosemicarbazides]: the IC50 in data set [1] turned out to be 40.5 ± 4.52 µM; in data set [2], 25.1 ± 1.33 µM; in data set [3] it was 65.3 ± 3.82 µM; in data set [4], 13 ± 1.64 µM; in data set [5], 43.9 ± 2.59 µM; in data set [7] (MTT), 35 ± 3.57 µM.
In the case of `CC1=CC2C(=Nc3nnc(-c4ccc([N+](=O)[O-])cc4)s3)c3ccccc3NC2C=C1` (centres unmarked) [6i, 7-methyl-N-(5-(4-nitrophenyl)-1,3,4-thiadiazol-2-yl)-10,10a-dihydroacridin-9(8aH)-imine], the “mortality rate of zebrafish embryos” value in data set [6] worked out at 0%. Further, the “malformation rate of zebrafish embryos” value in data set [6] (2.0 mg.L^−1) amounted to 25%. In addition, the “MAR (malformation rate)” value stood at 0% in data set [6] (1 mg/mL), 10% ^b in data set [6] (1.5 mg/mL) and 25% ^c in data set [6] (2 mg/mL). In addition, the “MOR (mortality rate)” value in data set [6] (1 mg/mL), in data set [6] (1.5 mg/mL) and in data set [6] (2 mg/mL) was 0% in each case. The IC50 in data set [1] (Homo sapiens) is 36.4 ± 3.15 µM; in data set [2] (Homo sapiens) it was more than 100 µM; in data set [3] (Homo sapiens, Fibroblast), 92 ± 2.99 µM; in data set [4] (Homo sapiens) it was 29.9 ± 2.45 µM; in data set [5] (Homo sapiens), 43.7 ± 2.36 µM; in data set [7] (Homo sapiens, MGC-803, MTT), 22.9 ± 1.85 µM.
As to `Cc1ccc2nc3ccccc3c(NC(=S)NNC(=O)c3ccc(Cl)cc3)c2c1` [4j, 1-2′-methyl acridinyl-3-4′-chloro benzoyl thiosemicarbazides], the IC50 in data set [1] worked out at 32.2 ± 2.36 µM; in data set [2], 20.5 ± 1.39 µM; in data set [3], 61.5 ± 1.85 µM; in data set [4] it was 19.9 ± 1.32 µM; in data set [5], 24.4 ± 3.53 µM; in data set [7] (MTT), 16.4 ± 1.56 µM.
Regarding `COc1ccc(C(=O)NNC(=S)Nc2c3ccccc3nc3ccc(OC)cc23)cc1` [4c, 1-2′-methoxyl acridinyl-3-4′-methoxy benzoyl thiosemicarbazides], the “MAR (malformation rate)” value in data set [6] (1 mg/mL) stood at 50% ^a; in data set [6] (1.5 mg/mL), 60% ^a; in data set [6] (2 mg/mL), 50% ^a. The “MOR (mortality rate)” value in data set [6] (1 mg/mL) came to 45% ^a; in data set [6] (1.5 mg/mL) it was 25% ^a; in data set [6] (2 mg/mL), 35% ^a. In addition, the IC50 in data set [1] was determined as 52.4 ± 3.67 µM; in data set [2], 19.4 ± 1.69 µM; in data set [3], 63.7 ± 2.59 µM; in data set [4] it was 11.2 ± 2.51 µM; in data set [5], 13.3 ± 1.37 µM; in data set [7] (MTT), 21 ± 1.55 µM.
As to `O=c1[nH]cc(F)c(=O)[nH]1` [5-FU, 5-fluorouracil, reference compound], the IC50 in data set [1] (Homo sapiens) was 44 ± 0.54 µM; in data set [2] (Homo sapiens), 40.1 ± 1.65 µM; in data set [3] (Homo sapiens, Fibroblast), 25.4 ± 1.27 µM; in data set [4] (Homo sapiens), 32 ± 1.23 µM; in data set [5] (Homo sapiens), 34.5 ± 1.18 µM; in data set [7] (Homo sapiens, MGC-803, MTT), 30.4 ± 2.87 µM.
Turning to `COC1=CC2C(=Nc3nnc(-c4ccc(Cl)cc4)s3)c3ccccc3NC2C=C1` (centres unmarked) [6e, 7-methoxy-N-(5-(4-chlorophenyl)-1,3,4-thiadiazol-2-yl)-10,10a-dihydroacridin-9(8aH)-imine], the entries for the “MAR (malformation rate)” value in data set [6] (1 mg/mL), in data set [6] (1.5 mg/mL) and in data set [6] (2 mg/mL) were 10% ^c, 70% ^c and 35% ^c, respectively. The “MOR (mortality rate)” value in data set [6] (1 mg/mL) stood at 10% ^c; in data set [6] (1.5 mg/mL), 30% ^c; in data set [6] (2 mg/mL), 65% ^c. In addition, the IC50 in data set [1] (Homo sapiens) is 27.9 ± 3.97 µM; in data set [2] (Homo sapiens) it was 33.6 ± 2.01 µM; in data set [3] (Homo sapiens, Fibroblast) it was 44.7 ± 1.44 µM; in data set [4] (Homo sapiens), 14.9 ± 1.3 µM; in data set [5] (Homo sapiens) it was 21.3 ± 2.81 µM; in data set [7] (Homo sapiens, MGC-803, MTT), 9.95 ± 1.03 µM. Besides, the IC50 in data set [7] (MTT) was 9.01 ± 1.32 µM.
In the case of `Cc1ccc2nc3ccccc3c(NC(=S)NNC(=O)c3ccccc3)c2c1` [4g, 1-2′-methyl acridinyl-3-benzoyl thiosemicarbazides], the IC50 in data set [1] is 39 ± 2.05 µM; in data set [2], 14.3 ± 1.52 µM; in data set [3], 70.1 ± 3.97 µM; in data set [4], 25.8 ± 1.51 µM; in data set [5] it was 20.2 ± 4.13 µM; in data set [7] (MTT) it was 13.5 ± 1.59 µM.
With `Cc1ccc2nc3ccccc3c(NC(=S)NNC(=O)c3ccc([N+](=O)[O-])cc3)c2c1` [4i, 1-2′-methyl acridinyl-3-4’-nitro benzoyl thiosemicarbazides], the IC50 in data set [1] came to 60.4 ± 2.95 µM; in data set [2], 11.8 ± 1.38 µM; in data set [3] it was 60.7 ± 2.31 µM; in data set [4] it was 9.89 ± 1.45 µM; in data set [5], 23.3 ± 1.33 µM; in data set [7] (MTT), 22.3 ± 1.35 µM.
